Key:
[1] = Phase II clinical trial: treatment-related and taste-related adverse events; type: in vivo, human
Protocol: The trial was conducted as a placebo-controlled, multicenter, randomized, double-blind, cross-over comparative study. The study consists of a screening phase (1 to 4 weeks), a first treatment phase (15 days), a drug holiday (2 to 3 weeks), a second treatment phase (15 days) and a follow-up phase (1 week).
Subjects (20 females, 11 males, mean age of 50.0 years) were randomly assigned to either the group receiving the compound according to Formula (I) first or the group receiving the placebo first. The subjects in the group receiving the compound according to Formula (I) first received orally tablets containing 150 mg of the compound according to Formula (I) (50 mg, 3 tablets), and the subjects in the group receiving the placebo first received orally placebo tablets (3 tablets), from the day following the first treatment phase once daily in the morning for 2 weeks.
Next, the incidence of taste-related adverse events and side effects observed in the Phase II clinical trial is shown in Table 6.
Here, the incidence of taste-related adverse events in Test Example 6 was examined. In this study, the compound represented by Formula (I) and the corresponding placebo were used as the investigational drugs. As the study design, a cross-over design consisting of two treatment phases was used. Each subject was assigned to either the treatment group taking 150 mg per day of the compound represented by Formula (I) during the first treatment phase and the placebo during the second treatment phase, or the treatment group taking the placebo during the first treatment phase and 150 mg per day of the compound represented by Formula (I) during the second treatment phase. The safety analysis population in this study was 31 subjects, all of whom were taking the compound represented by Formula (I) and the placebo. Among them, dysgeusia occurred in 1 subject (1/31, 3.2%) and hypogeusia occurred in another subject (1/31, 3.2%) when taking the compound represented by Formula (I). […] Therefore, taste-related adverse events occurred in 2 subjects (2/31, 6.5%). No taste-related adverse events were observed when taking the placebo.
Based on the above results, for the proportion of subjects who experienced any of the taste-related adverse events, the study design of each study was taken into account, and as the difference between each investigational drug and placebo, the mean of differences of incidence in the same subject between the treatments and the two-sided 95% confidence interval thereof were calculated for Test Example 6, and the difference of incidence between the Gefapixant 50 mg treatment group and the placebo treatment group and the two-sided 95% confidence interval thereof were calculated for the study MK-7264-012.

clinical = details: human, plasma, oral

## C[C@@H](Cn1c(=O)[nH]/c(=N\c2ccc(Oc3ccccn3)cc2)n(Cc2ccc(Cl)cc2)c1=O)C(=O)O [compound represented by Formula (I), (2S)-3-(3-[(4-Chlorophenyl)methyl]-2,6-dioxo-4-{[4-(pyridin-2-yloxy)phenyl]amino}-3,6-dihydro-1,3,5-triazin-1(2H)-yl)-2-methyl-propanoic acid]
[1]; 150 mg once daily, N = 31
  Any Treatment-related AEs, number of events: (4)
  Drug-induced liver injury, number of events: (1)
  Drug-induced liver injury, patients: 1 (3.2) n (%)
  Dysgeusia, number of events: (1)
  Dysgeusia, patients: 1 (3.2) n (%)
  Gastrointestinal disorders, number of events: (1)
  Gastrointestinal disorders, patients: 1 (3.2) n (%)
  Hepatobiliary disorders, number of events: (1)
  Hepatobiliary disorders, patients: 1 (3.2) n (%)
  Hypoaesthesia oral, number of events: (1)
  Hypoaesthesia oral, patients: 1 (3.2) n (%)
  Hypogeusia, number of events: (1)
  Nervous system disorders, number of events: (2)
  Nervous system disorders, patients: 2 (6.5) n (%)
  Patients with any Treatment-related AEs: 4 (12.9) n (%)
  hypogeusia, patients: 1 (3.2) n (%)
[1]; 150 mg per day
  severity of taste-related adverse events: both were mild
[1]; 150 mg per day, 31 subjects
  ageusia: No ageusia was observed
  dysgeusia (taste change), patients: 3.2%
  hypogeusia, patients: 3.2%
  number of subjects with taste-related adverse events: 2 subjects
  taste-related adverse events, patients: 6.5%
[1]; 150 mg, mean difference between treatments in the same subject
  Difference of incidence of any of the taste-related adverse events (drug − placebo): 6.5%
clinical; 3 mg
  concentration at 24 h: 15.2 ng/mL
clinical; 10 mg
  concentration at 24 h: 50.7 ng/mL
clinical; 30 mg
  concentration at 24 h: 134 ng/mL
clinical; 100 mg
  concentration at 24 h: 424 ng/mL
clinical; 300 mg
  concentration at 24 h: 1840 ng/mL
clinical; 450 mg
  concentration at 24 h: 2680 ng/mL

Source: US11883407B2, “Medicament for the treatment of chronic cough” (Shionogi & Co., Ltd., priority 2018, dated 2024)
